According to patent US20230250077A1, “SULFONYLBENZAMIDE DERIVATIVE AND CONJUGATE THEREOF, PREPARATION METHOD THEREFOR AND USE THEREOF” (Jiangsu Hengrui Pharmaceuticals Co., Ltd., priority 2020, published 2023):
Marks after values point to notes of the source that are not given here.

Tests used:
SD rats = assay: Toxicity test on SD rats by repeated intravenous administrations for 7 days; format: in vivo, rat; details: 1 mg/kg intravenously qd
Method: This experiment was performed to evaluate the toxicity of compound 9 and AZD4320 to SD rats by repeated intravenous administrations for 7 days.
30 SD rats, weighing about 180-200 g and aged 6-7 weeks, half male and half female, purchased from Zhejiang Vital River Laboratory Animal Technology Co., Ltd., SPF grade. Animal certification number: 200917Aazz0619000298 and 20200917Aazz0619000104. Production license number: SCXK (Zhejiang) 2019-0001.
Housing conditions: SPF grade, animals were housed in plastic and transparent rat cages, 2-3 per cage. The room temperature was 20-26° C. and the relative humidity was 40%-70%. The illumination was controlled in a 12/12 light/dark cycle. The granulated feed for mice was freely taken in an unlimited amount.
The rats were randomly divided into the following 3 groups: a vehicle control group, a compound 9-1 mg/kg group and a compound AZD4320-1 mg/kg group, with 6 rats in each group, half male and half female.
Dosage of the test sample for the 7-day toxicity test in rats: 1 mg/kg (qd), for 7 consecutive days. Administration route: intravenously, dosing volume: 10 mL/kg, dosing frequency and dosing period: daily in the morning for 7 days.
Vehicle: 1.5% DMA+98.5% (10% HS-15), wherein DMA is N,N-dimethylacetamide (Shanghai Titan Scientific Co., Ltd., Cat #01013630); and HS-15 is polyethylene glycol stearate 15 (Solutol HS15) (Shanghai Xietai Chemical Co., Ltd., Cat #50253404).
Hitachi 7100 automatic biochemical analyzer
Siemens advia 2120i automatic blood cell analyzer
Sysmex ca1500 automatic coagulation analyzer
The detection results were input and statistically processed by Excel of the computer.
Clinical symptoms, food intake and general visual observation results of dissection were not statistically calculated, and indexes such as body weight, organ weight and clinical examination were counted by using T-test.
SD rats were intravenously administered with 1 mg/kg compound 9 or 1 mg/kg AZD4320 at 5 mL/kg for 7 repeated days.

[1] = Pharmacokinetic evaluation in mice (iv, LC/MS/MS plasma); format: in vivo; details: C57 mice, female, intravenous administration, dose 1 mg/kg (table)
Method: The drug concentration in the plasma of the test animals (mice) at different time points after intravenous (iv) administration of compound 10 and AZD4320 was determined by an LC/MS/MS method. The pharmacokinetic behavior of the compounds of the present disclosure in mice was studied and their pharmacokinetic profile was valuated.
18 C57 mice, female, randomly divided into 2 groups, purchased from Zhejiang Vital River Laboratory Animal Technology Co., Ltd, animal production license number: SCXK (Shanghai) 2017-0005.
A certain amount of compound 10 was weighed, dissolved by adding 5% by volume of DMSO and 5% Tween 80 (Shanghai Titan Scientific Co., Ltd.), and then prepared into a 0.1 mg/mL clear solution by adding 90% normal saline. Compound AZD4320 was formulated as with compound 10. […]
(§1) The mice were intravenously administered with compound 10, and 0.1 mL of blood was collected before the administration and 5 min, 0.25 h, 0.5 h, 1.0 h, 2.0 h, 4.0 h, 8.0 h, 11.0 h and 24.0 h after the administration, put into an EDTA-K2 anticoagulation tube, centrifuged at 10,000 rpm for 1 min (4° C.). Plasma was separated within 1 hour, and stored at −20° C. for testing. The process from blood collection to centrifugation was performed under an ice bath.
as §1, with “compound AZD4320,” for “compound 10,”
The content of the test compounds at different concentrations in plasma of mice after the administration was determined: 10 μL of plasma of mice at each time point after the administration was mixed with 200 μL of methanol (containing an internal standard solution camptothecin (100 ng/mL)); the mixture was vortexed for 1 min, and centrifuged for 10 min (18,000 r/min), and 3 μL of supernatant was taken for LC/MS/MS analysis.

BCL-xL = target: T1, BCL-xL (Homo sapiens, UniProt Q07817); assay: Binding activity for BCL-xL (HTRF, biotin-labeled BIM); details: His-tagged BCL-xL
T1 construct: purchased R&D 894-BX-050
T1 sequence (Q07817 whole entry): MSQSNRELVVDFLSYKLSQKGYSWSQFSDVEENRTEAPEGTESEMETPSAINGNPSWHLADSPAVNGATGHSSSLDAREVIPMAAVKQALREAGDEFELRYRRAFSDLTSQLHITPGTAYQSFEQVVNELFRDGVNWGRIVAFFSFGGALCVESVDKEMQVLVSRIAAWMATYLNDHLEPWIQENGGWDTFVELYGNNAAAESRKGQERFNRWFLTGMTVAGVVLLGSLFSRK
Method: In vitro BCL-xL-binding activity was tested by the following method.
Reagents used in this experiment: His-tagged BCL-xL protein (R&D, Cat #894-BX-050); biotin-labeled BIM protein (R&D, Cat #3526/1); binding buffer (cisbio, Cat #62DLBDDF); assay buffer (cisbio, Cat #62DB1FDG); MAb anti-6His-Eu cryptate (cisbio, Cat #61HI2KLA); and affinity streptomycin linked XL665 (cisbio, Cat #611SAXLA).
The in vitro binding assay described below can determine the binding activity of test compounds for BCL-xL.
The test compounds were dissolved in dimethyl sulfoxide and diluted to gradient concentrations as required for the experiment, and the compounds at various concentrations formulated in dimethyl sulfoxide were subjected to a 100-fold dilution with a binding buffer. BCL-xL was diluted to the corresponding concentration with a binding buffer, and added to a white 384-well plate at 4 μL/well. Then the diluted test compound was added to the white 384-well plate at 2 μL/well. The plate was incubated at 25° C. for 1 h after the mixture was uniformly mixed. Biotin-labeled BIM protein was diluted to the corresponding concentration with a binding buffer, and added to a white 384-well plate at 4 μL/well. The plate was incubated at 25° C. for 2 h after the mixture was uniformly mixed. The MAb anti-6His-Eu cryptate and the affinity streptomycin linked XL665 were each diluted to the corresponding concentration with an assay buffer, and added to a white 384-well plate at 5 μL/well. The plate was incubated at 25° C. for 2-4 h after the mixture was uniformly mixed. The signal values were read with the HTRF program in a microplate reader (BMG Labtech, model: PHERAstar FS).

BCL-2 = target: T2, BCL-2 (Homo sapiens, UniProt P10415); assay: Binding activity for BCL-2 (HTRF, biotin-labeled BIM); details: His-tagged BCL-2, biotin-labeled BIM
T2 construct: purchased R&D systems 827-BC-050
T2 sequence (P10415 whole entry): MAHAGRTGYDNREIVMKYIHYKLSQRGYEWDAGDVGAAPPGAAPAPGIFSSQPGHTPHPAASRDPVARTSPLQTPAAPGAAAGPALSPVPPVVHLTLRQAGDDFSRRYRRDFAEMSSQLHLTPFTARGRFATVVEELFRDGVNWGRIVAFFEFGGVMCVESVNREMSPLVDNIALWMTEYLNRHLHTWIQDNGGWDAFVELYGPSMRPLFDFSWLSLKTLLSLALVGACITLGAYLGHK
Method: In vitro BCL-2-binding activity was tested by the following method.
Reagents used in this experiment: His-tagged BCL-2 protein (R&D systems, Cat #827-BC-050); biotin-labeled BIM protein (R&D, Cat #3526/1); binding buffer (cisbio, Cat #62DLBDDF); assay buffer (cisbio, Cat #62DB1FDG); MAb anti-6His-Eu cryptate (cisbio, Cat #61HI2KLA); and affinity streptomycin linked XL665 (cisbio, Cat #611SAXLA).
The in vitro binding assay described below can determine the binding activity of test compounds for BCL-2.
The test compounds were dissolved in dimethyl sulfoxide and diluted to gradient concentrations as required for the experiment, and the compounds at various concentrations formulated in dimethyl sulfoxide were subjected to a 100-fold dilution with a binding buffer. BCL-2 was diluted to the corresponding concentration with a binding buffer solution, and added to a white 384-well plate at 4 μL/well. Then the diluted test compound was added into the white 384-well plate at 2 μL/well. The plate was incubated at 25° C. for 1 h after the mixture was uniformly mixed. Biotin-labeled BIM protein was diluted to the corresponding concentration with a binding buffer, and added to a white 384-well plate at 4 μL/well. The plate was incubated at 25° C. for 2 h after the mixture was uniformly mixed. The MAb anti-6His-Eu cryptate and the affinity streptomycin linked XL665 were each diluted to the corresponding concentration with an assay buffer, and added to a white 384-well plate at 5 μL/well. The plate was incubated at 25° C. for 2-4 h after the mixture was uniformly mixed. The signal values were read with the HTRF program in a microplate reader (BMG Labtech, model: PHERAstar FS).

RS4;11 cells = assay: Inhibition of proliferation of RS4;11 cells (CellTiter-Glo); format: cell-based; details: Homo sapiens, 72 h, 3 days, read-out: Inhibitory activity IC50 (nM) for the proliferation of RS4;11 cells
Method: (§2) In vitro inhibitory activity for the proliferation of RS4;11 cells and NCI-H146 cells was tested by the following method.
(§3) Reagents used in this experiment: RPMI-1640 medium (HyCLone, Cat #SH30243018); fetal bovine serum (Gibco, Cat #10099-141); pancreatin (Gibco, Cat #25200-072); Cell Titer-Glo (Promega, Cat #G7571).
(§4) Materials used: RS4;11 cells (Nanjing Kebai Biotechnology Co., Ltd, Cat #CBP60641); and NCI-H146 cells (ATCC, Cat #HTB-173).
(§5) The in vitro cell proliferation assay described below can determine the inhibitory activity of the test compounds for the proliferation of RS4;11 cells and NCI-H146 cells.
(§6) RS4;11 cells (or NCI-H146 cells) were cultured in an RPMI-1640 culture medium containing 10% FBS, and were passaged for 2-3 times a week in a passage ratio of 1:3 or 1:5. During passage, the cells were transferred to a centrifuge tube, and centrifuged at 1200 rpm for 3 min. The supernatant was discarded, and fresh culture medium was added to resuspend the cells. 90 μL of cell suspension was added to a 96-well cell culture plate, wherein RS4;11 cells and NCI-H146 cells were added at a density of 2.22×10^5 cells/mL. Only 100 μL of complete medium (RPMI-1640 medium containing 10% FBS) was added to the periphery of the 96-well plate. The plate was incubated in an incubator for 24 h (37° C., 5% CO2).
(§7) The test sample was diluted to a proper concentration gradient with dimethyl sulfoxide as required for the experiment. 5 μL of the solution of the test compound prepared in a gradient concentration was added to 95 μL of fresh culture medium and mixed uniformly, and then 10 μL of the culture medium containing the above compound was added to a cell culture plate. The cell culture plate was incubated in an incubator for 3 days (37° C., 5% CO2). 50 μL of CellTiter-Glo reagent was added into each well of the 96-well cell culture plate. The plate was let stand for 5-10 min away from the light at room temperature. The chemiluminescence signals were read by a microplate reader (BMG Labtech, model: PHERAstar FS) and the data were processed by GraphPad software.

NCI-H146 cells = assay: Inhibition of proliferation of NCI-H146 cells (CellTiter-Glo); format: cell-based; details: Homo sapiens, 72 h, 3 days, read-out: Inhibitory activity IC50 (nM) for the proliferation of NCI-H146 cells
Method: as §2, §3, §4, §5, §6, §7

Row | Clearance CLz/F [1] [mL/min/kg] | AUC(0-t) ([1]; mouse, plasma, read-out: Area under curve AUC0-t) [ng·h/mL] | half-life ([1]; mouse, plasma, read-out: Half-life T½ (converted)) [min] | MRT inf ([1]; mouse, plasma, read-out: Mean retention time MRT 0-∞) [h] | concentration at 5 min ([1]; mouse, plasma, read-out: Plasma Concentration C5 min) [ng/mL] | Ki (BCL-xL) [nM] | Ki (BCL-2) [nM] | IC50 (RS4;11 cells) [nM] | IC50 (NCI-H146 cells) [nM] | Structure (SMILES) | PLT (10^9/L) (SD rats) | Effect on platelets (in words) (SD rats; vs vehicle control)
1 | 72.7 | 206 | 186 | 2.4 | 436 | – | – | – | – | CN(CCO)CC[C@H](CSc1ccccc1)Nc1ccc(S(=O)(=O)NC(=O)c2ccc(N3CCC([C@@H](O)c4ccccc4-c4ccc(Cl)cc4)CC3)cc2)cc1S(=O)(=O)C(F)(F)F [AZD4320, reference compound] | 807.50** 10^9/L | more significantly reduced
2 | – | – | – | – | – | 0.24 | 0.07 | 7 | 33 | O=C(NS(=O)(=O)c1ccc(N[C@@H](CSc2ccccc2)C[C@H]2CCCN2CCO)c(S(=O)(=O)C(F)(F)F)c1)c1ccc(N2CCC([C@@H](O)c3ccccc3-c3ccc(Cl)cc3)CC2)cc1 [Example 2-2, 4-(4-((R)-(4′-chloro-[1,1′-biphenyl]-2-yl)(hydroxy)methyl)piperidin-1-yl)-N-((4-(((R)-1-((R)-1-(2-hydroxyethyl)pyrrolidin-2-yl)-3-(phenylthio)propan-2-yl)amino)-3-((trifluoromethyl)sulfonyl)phenyl)sulfonyl)benzamide] | – | –
